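The compound was tested at five concentrations on cells cultured in 96-well plates, with a 48-hour exposure period. TGI: total growth inhibition.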
Assays:
Test in all cases: NCI tumour cell line growth inhibition, 48 h
PC-3 prostate = tested on: PC-3 prostate
UO-31 renal = tested on: UO-31 renal
MDA-MB-435 = tested on: MDA-MB-435
U251 CNS = tested on: U251 CNS
OVCAR-4 ovarian = tested on: OVCAR-4 ovarian
SR leukemia = tested on: SR leukemia
RXF 393 renal = tested on: RXF 393 renal
M14 melanoma = tested on: M14 melanoma
HL-60(TB) leukemia = tested on: HL-60(TB) leukemia
IGROV1 ovarian = tested on: IGROV1 ovarian

CCOc1cc(C2SCC(=O)N2c2nc3cc4sc(N5C(=O)CSC5c5ccc(O)c(OCC)c5)nc4cc3s2)ccc1O (stereo not given)
TGI (PC-3 prostate): > 100 µM
TGI (UO-31 renal): > 100 µM
TGI (MDA-MB-435): > 100 µM
TGI (U251 CNS): > 100 µM
TGI (OVCAR-4 ovarian): > 100 µM
TGI (SR leukemia): > 100 µM
TGI (RXF 393 renal): > 100 µM
TGI (M14 melanoma): > 100 µM
TGI (HL-60(TB) leukemia): > 100 µM
TGI (IGROV1 ovarian): > 100 µM

O=[N+]([O-])c1ccc(Cl)cc1C=NC12CC3CC(CC(C3)C1)C2
TGI (PC-3 prostate): > 100 µM
TGI (UO-31 renal): > 100 µM
TGI (MDA-MB-435): > 100 µM
TGI (U251 CNS): > 100 µM
TGI (OVCAR-4 ovarian): > 100 µM
TGI (SR leukemia): 26.4 µM
TGI (RXF 393 renal): 97.6 µM
TGI (M14 melanoma): > 100 µM
TGI (HL-60(TB) leukemia): 15.6 µM
TGI (IGROV1 ovarian): > 100 µM

CCS(=O)(=O)c1c2cc(OC)ccc2nc2ccc(OC)cc12
TGI (PC-3 prostate): > 100 µM
TGI (UO-31 renal): > 100 µM
TGI (MDA-MB-435): > 100 µM
TGI (U251 CNS): > 100 µM
TGI (OVCAR-4 ovarian): > 100 µM
TGI (SR leukemia): > 100 µM
TGI (RXF 393 renal): > 100 µM
TGI (M14 melanoma): > 100 µM
TGI (HL-60(TB) leukemia): > 100 µM
TGI (IGROV1 ovarian): > 100 µM

CC(C)(C)c1cc(C2COC(=O)COCC(=O)OCCOCCOCCO2)cc(C(C)(C)C)c1O (stereo not given)
TGI (PC-3 prostate): > 100 µM
TGI (UO-31 renal): 35.7 µM
TGI (MDA-MB-435): 43 µM
TGI (U251 CNS): > 100 µM
TGI (OVCAR-4 ovarian): > 100 µM
TGI (SR leukemia): > 100 µM
TGI (RXF 393 renal): 41.3 µM
TGI (M14 melanoma): 41.3 µM
TGI (HL-60(TB) leukemia): > 31.6 µM
TGI (IGROV1 ovarian): > 100 µM

COc1ccc2c(c1)-c1nn(CCN(C)C)c3ccc(C(=O)NCCCN(C)CCCNC(=O)c4ccc5c6c(nn5CCN(C)C)-c5cc(OC)ccc5Nc46)c(c13)N2
TGI (PC-3 prostate): 1.09 µM
TGI (UO-31 renal): 4.41 µM
TGI (MDA-MB-435): 0.262 µM
TGI (U251 CNS): 0.825 µM
TGI (OVCAR-4 ovarian): 0.827 µM
TGI (SR leukemia): 3.39 µM
TGI (RXF 393 renal): 0.499 µM
TGI (M14 melanoma): 1.33 µM
TGI (HL-60(TB) leukemia): 2.63 µM
TGI (IGROV1 ovarian): 1.47 µM

O=C1C[C@H](c2ccccc2)C2(C(=O)c3ccccc3C2=O)[C@H](c2ccccc2)C1
TGI (PC-3 prostate): > 100 µM
TGI (UO-31 renal): > 100 µM
TGI (MDA-MB-435): > 100 µM
TGI (U251 CNS): > 100 µM
TGI (OVCAR-4 ovarian): > 100 µM
TGI (SR leukemia): > 100 µM
TGI (RXF 393 renal): 50.5 µM
TGI (M14 melanoma): > 100 µM
TGI (HL-60(TB) leukemia): > 100 µM
TGI (IGROV1 ovarian): > 100 µM

O=C1O[C@]2(c3ccccc3)C(c3ccccc3)=C[C@]2(C(=O)c2ccccc2)C1=O
TGI (PC-3 prostate): > 100 µM
TGI (UO-31 renal): 61.1 µM
TGI (MDA-MB-435): > 100 µM
TGI (U251 CNS): 93.5 µM
TGI (OVCAR-4 ovarian): > 100 µM
TGI (SR leukemia): 30.7 µM
TGI (RXF 393 renal): 5.13 µM
TGI (M14 melanoma): > 100 µM
TGI (HL-60(TB) leukemia): 22.4 µM
TGI (IGROV1 ovarian): > 100 µM

CC[C@@H]1CC[C@@H]2[C@H](CC[C@]3(C)[C@@H](OS(=O)(=O)c4ccc(C)cc4)CC[C@@H]23)[C@H]1CO
TGI (PC-3 prostate): > 100 µM
TGI (UO-31 renal): 52.5 µM
TGI (MDA-MB-435): > 100 µM
TGI (U251 CNS): > 100 µM
TGI (OVCAR-4 ovarian): > 100 µM
TGI (SR leukemia): > 100 µM
TGI (RXF 393 renal): > 100 µM
TGI (M14 melanoma): > 100 µM
TGI (HL-60(TB) leukemia): > 100 µM
TGI (IGROV1 ovarian): > 100 µM

O=C(OCc1ccccc1)N1c2cc([N+](=O)[O-])ccc2C(=O)N2CCC[C@H]2C1O (stereo not given in full)
TGI (PC-3 prostate): > 100 µM
TGI (UO-31 renal): > 100 µM
TGI (MDA-MB-435): > 100 µM
TGI (U251 CNS): > 100 µM
TGI (OVCAR-4 ovarian): > 100 µM
TGI (SR leukemia): > 100 µM
TGI (RXF 393 renal): > 100 µM
TGI (M14 melanoma): > 100 µM
TGI (HL-60(TB) leukemia): > 100 µM
TGI (IGROV1 ovarian): > 100 µM

OCC(O)C(O)C(O)C(/C=N\Nc1ncnc2ccc(Br)cc12)=N/Nc1ncnc2ccc(Br)cc12 (stereo not given)
TGI (PC-3 prostate): > 100 µM
TGI (UO-31 renal): > 100 µM
TGI (MDA-MB-435): > 100 µM
TGI (U251 CNS): > 100 µM
TGI (OVCAR-4 ovarian): > 100 µM
TGI (SR leukemia): > 100 µM
TGI (RXF 393 renal): > 100 µM
TGI (M14 melanoma): 71.2 µM
TGI (HL-60(TB) leukemia): > 100 µM
TGI (IGROV1 ovarian): > 100 µM

CC1CCC2(CC1)N=C1CCC(C)CC1C1(CCC(C)CC1)N2 (stereo not given)
TGI (PC-3 prostate): > 100 µM
TGI (UO-31 renal): > 100 µM
TGI (MDA-MB-435): > 100 µM
TGI (U251 CNS): > 100 µM
TGI (OVCAR-4 ovarian): > 100 µM
TGI (SR leukemia): > 100 µM
TGI (RXF 393 renal): > 100 µM
TGI (M14 melanoma): > 100 µM
TGI (HL-60(TB) leukemia): > 100 µM
TGI (IGROV1 ovarian): > 100 µM

C#CCOC(=O)C(N)CCCN=C(N)N (stereo not given)
TGI (PC-3 prostate): > 100 µM
TGI (UO-31 renal): > 100 µM
TGI (MDA-MB-435): > 100 µM
TGI (U251 CNS): > 100 µM
TGI (OVCAR-4 ovarian): > 100 µM
TGI (SR leukemia): > 100 µM
TGI (RXF 393 renal): > 100 µM
TGI (M14 melanoma): > 100 µM
TGI (HL-60(TB) leukemia): > 100 µM
TGI (IGROV1 ovarian): > 100 µM

COc1cc2c(cc1Cl)n([O-])c(C#N)c(N1CCN(c3ccc([N+](=O)[O-])cc3)CC1)[n+]2=O
TGI (PC-3 prostate): > 100 µM
TGI (UO-31 renal): > 100 µM
TGI (MDA-MB-435): > 100 µM
TGI (U251 CNS): > 100 µM
TGI (OVCAR-4 ovarian): > 100 µM
TGI (SR leukemia): > 30.7 µM
TGI (RXF 393 renal): > 100 µM
TGI (M14 melanoma): > 100 µM
TGI (HL-60(TB) leukemia): > 100 µM
TGI (IGROV1 ovarian): 8.29 µM

NCCCCNC1(c2cc3ccccc3s2)CCCCC1
TGI (PC-3 prostate): 17.3 µM
TGI (UO-31 renal): 9.94 µM
TGI (MDA-MB-435): 3.49 µM
TGI (U251 CNS): 5.49 µM
TGI (OVCAR-4 ovarian): 20.5 µM
TGI (SR leukemia): 3.58 µM
TGI (RXF 393 renal): 14.9 µM
TGI (M14 melanoma): 3.8 µM
TGI (HL-60(TB) leukemia): 12.6 µM
TGI (IGROV1 ovarian): 13.1 µM
